Results taken from article PMC11876601 (Molecular Systems Biology, 2025).
“And” between values parts separate entries of the source, which are not always exact repeats. Equal values may be shown once. Read-outs that look alike come from different tables or passages of the source.

System: AsPC-1 cells
Assay: Cell proliferation assay, chemodrug + ATR inhibitor (Incucyte confluence, 72 h);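 note: underlying read-out for every value is AsPC-1 confluence after 72 h incubation at 37 °C and 5% CO2, divided by that well's starting confluence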
Details: for EC50: Homo sapiens; for Ratio: Response / Response vehicle (mean)
[1] = AsPC-1, Experiment GEM (no ATRi), single replicates R1-R3, listed as 5-FU
[2] = AsPC-1, Experiment GEM+ATRi_dose1, single replicates R1-R3, listed as 5-FU
[3] = AsPC-1, Experiment GEM+ATRi_dose2, single replicates R1-R3, listed as 5-FU
[4] = AsPC-1, Experiment GEM+ATRi_dose3, single replicates R1-R3, listed as 5-FU
[5] = Drug 0 nM + ATRi 3 nM (ATRi alone, GEM+ATRi_dose1 series), replicates R1-R3, listed as 5-FU
[6] = Drug 0 nM + ATRi 10 nM (ATRi alone, GEM+ATRi_dose2 series), replicates R1-R3, listed as 5-FU
[7] = Drug 0 nM + ATRi 30 nM (ATRi alone, GEM+ATRi_dose3 series), replicates R1-R3, listed as 5-FU
[8] = Drug 1 nM + ATRi 3 nM (GEM+ATRi_dose1), replicates R1-R3, listed as 5-FU
[9] = Drug 1 nM + ATRi 10 nM (GEM+ATRi_dose2), replicates R1-R3, listed as 5-FU
[10] = Drug 1 nM + ATRi 30 nM (GEM+ATRi_dose3), replicates R1-R3, listed as 5-FU
[11] = Drug 3 nM + ATRi 3 nM (GEM+ATRi_dose1), replicates R1-R3, listed as 5-FU
[12] = Drug 3 nM + ATRi 30 nM (GEM+ATRi_dose3), replicates R1-R3, listed as 5-FU
[13] = Drug 3 nM alone, ATRi 0 nM (experiment 'GEM'), replicates R1-R3, listed as 5-FU
[14] = Drug 10 nM + ATRi 3 nM (GEM+ATRi_dose1), replicates R1-R3, listed as 5-FU
[15] = Drug 10 nM + ATRi 10 nM (GEM+ATRi_dose2), replicates R1-R3, listed as 5-FU
[16] = Drug 10 nM + ATRi 30 nM (GEM+ATRi_dose3), replicates R1-R3, listed as 5-FU
[17] = Drug 10 nM alone, ATRi 0 nM (experiment 'GEM'), replicates R1-R3, listed as 5-FU
[18] = Drug 30 nM + ATRi 3 nM (GEM+ATRi_dose1), replicates R1-R3, listed as 5-FU
[19] = Drug 30 nM + ATRi 10 nM (GEM+ATRi_dose2), replicates R1-R3, listed as 5-FU
[20] = Drug 30 nM + ATRi 30 nM (GEM+ATRi_dose3), replicates R1-R3, listed as 5-FU
[21] = Drug 100 nM + ATRi 3 nM (GEM+ATRi_dose1), replicates R1-R3
[22] = Drug 100 nM + ATRi 10 nM (GEM+ATRi_dose2), replicates R1-R3, listed as 5-FU
[23] = Drug 100 nM + ATRi 30 nM (GEM+ATRi_dose3), replicates R1-R3, listed as 5-FU
[24] = Drug 100 nM alone, ATRi 0 nM (experiment 'GEM'), replicates R1-R3, listed as 5-FU
[25] = Drug 300 nM + ATRi 3 nM (GEM+ATRi_dose1), replicates R1-R3
[26] = Drug 300 nM + ATRi 10 nM (GEM+ATRi_dose2), replicates R1-R3, listed as 5-FU
[27] = Drug 300 nM + ATRi 30 nM (GEM+ATRi_dose3), replicates R1-R3, listed as 5-FU
[28] = Drug 300 nM alone, ATRi 0 nM (experiment 'GEM'), replicates R1-R3, listed as 5-FU
[29] = Drug 1000 nM + ATRi 3 nM (GEM+ATRi_dose1), replicates R1-R3
[30] = Drug 1000 nM + ATRi 30 nM (GEM+ATRi_dose3), replicates R1-R3, listed as 5-FU
[31] = Drug 1000 nM alone, ATRi 0 nM (experiment 'GEM'), replicates R1-R3, listed as 5-FU
[32] = Drug 3000 nM + ATRi 3 nM (GEM+ATRi_dose1), replicates R1-R3
[33] = Drug 3000 nM + ATRi 10 nM (GEM+ATRi_dose2), replicates R1-R3, listed as 5-FU
[34] = Drug 3000 nM + ATRi 30 nM (GEM+ATRi_dose3), replicates R1-R3, listed as 5-FU
[35] = Drug 3000 nM alone, ATRi 0 nM (experiment 'GEM'), replicates R1-R3, listed as 5-FU
[36] = drug 100 nM + ATRi 3 nM, listed as 5-FU
[37] = drug 300 nM + ATRi 3 nM, listed as 5-FU
[38] = drug 1000 nM + ATRi 3 nM, listed as 5-FU
[39] = drug 3000 nM + ATRi 3 nM, listed as 5-FU

Method: Cells were seeded at 5000 cells/well into 96-well flat bottom plates (Eppendorf) and allowed to attach overnight. […] Cells were incubated for 72 h at 37 °C and 5% CO2. Cell confluence readouts at 72 h were either normalized to their initial confluence using the Incucyte software (AsPC-1) or used without prior normalization (all others). […] Each experiment was performed in triplicates, the data was plotted as mean ± standard deviation (s.d.).

O=c1[nH]cc(F)c(=O)[nH]1 [5-fluorouracil]
Curve bottom [1]: 1.02 and 1.01 and 1.04
Curve slope [1]: 1.53 and 1.20 and 1.02
Curve top [1]: 0.52 and 0.45 and 0.53
Curve bottom [2]: 1.03 and 1.04
Curve slope [2]: 1.17 and 1.72 and 2.53
Curve top [2]: 0.34 and 0.38 and 0.50
Curve bottom (AsPC-1, Experiment GEM+ATRi_dose2, single replicates R1-R3): 1.02
Curve slope [3]: 2.12 and 2.47 and 2.30
Curve top [3]: 0.44 and 0.42 and 0.41
Curve bottom [4]: 0.92 and 0.93 and 0.96
Curve slope [4]: 7.78 and 7.99 and 4.74
Curve top [4]: 0.42 and 0.41
Response [5]: 93.23 and 93.25
Response [6]: 93.23 and 93.25
Response [7]: 86.00 and 86.93
Response [8]: 93.84 and 90.46
Response [9]: 92.14 and 89.28
Response [10]: 85.34 and 86.33
Response (Drug 1 nM alone, ATRi 0 nM (experiment 'GEM'), replicates R1-R3, listed as 5-FU): 94.45
Response [11]: 93.43 and 94.40
Response (Drug 3 nM + ATRi 10 nM (GEM+ATRi_dose2), replicates R1-R3, listed as 5-FU): 92.25 and 90.36
Response [12]: 84.22 and 84.05
Response [13]: 90.32
Response [14]: 92.50 and 91.39
Response [15]: 91.53 and 89.96
Response [16]: 83.67 and 82.94
Response [17]: 89.98 and 90.52
Response [18]: 93.40 and 92.15
Response [19]: 91.74 and 91.80
Response [20]: 86.01 and 86.29
Response (Drug 30 nM alone, ATRi 0 nM (experiment 'GEM'), replicates R1-R3, listed as 5-FU): 91.55 and 89.05
Response [21]: 92.03
Response [22]: 90.88 and 90.27
Response [23]: 85.31 and 85.49
Response [24]: 92.05 and 91.30
Response [25]: 79.74
Response [26]: 62.48 and 67.47
Response [27]: 51.19 and 52.50
Response [28]: 82.78 and 83.05
Response [29]: 50.06
Response (Drug 1000 nM + ATRi 10 nM (GEM+ATRi_dose2), replicates R1-R3, listed as 5-FU): 44.01 and 42.89
Response [30]: 38.74 and 41.39
Response [31]: 71.08 and 72.31
Response [32]: 44.54
Response [33]: 35.64 and 36.17
Response [34]: 35.72 and 32.91
Response [35]: 54.65 and 60.00
EC50 (ASPC1, 72 h, AsPC-1, Experiment GEM (no ATRi), single replicates R1-R3): 1020 nM
EC50 (ASPC1, 72 h, read-out: EC50 mean [nM], AsPC-1, Experiment GEM (no ATRi), mean of R1-R3, repeated in each replicate line): 1190 nM
EC50 (ASPC1, 72 h, read-out: pEC50, AsPC-1 (converted), Experiment GEM (no ATRi), single replicates R1-R3): 1020 nM
EC50 (ASPC1, read-out: EC50 mean [nM], AsPC-1, Experiment GEM (no ATRi), mean of R1-R3, repeated in each replicate line): 1190 nM
EC50 (ASPC1, read-out: EC50 mean [nM], AsPC-1, Experiment GEM+ATRi_dose1, mean of R1-R3, repeated in each replicate line): 619 nM
EC50 (ASPC1, read-out: EC50 mean [nM], AsPC-1, Experiment GEM+ATRi_dose2, mean of R1-R3, repeated in each replicate line): 326 nM
EC50 (ASPC1, read-out: EC50 mean [nM], AsPC-1, Experiment GEM+ATRi_dose3, mean of R1-R3, repeated in each replicate line): 266 nM
Ratio [5]: 1.02 and 1.04
Ratio [6]: 1.02 and 1.04
Ratio [7]: 0.94 and 0.97
Ratio [8]: 1.03 and 1.01
Ratio [9]: 1.01 and 1.00
Ratio [10]: 0.94 and 0.97
Ratio (Drug 1 nM alone, ATRi 0 nM (experiment 'GEM'), replicates R1-R3): 1.04
Ratio [11]: 1.03 and 1.06
Ratio (Drug 3 nM + ATRi 10 nM (GEM+ATRi_dose2), replicates R1-R3): 1.01
Ratio [12]: 0.92 and 0.94
Ratio [13]: 0.99 and 1.05
Ratio [14]: 1.01 and 1.02
Ratio [15]: 1.00 and 1.01
Ratio [16]: 0.92 and 0.93
Ratio [17]: 0.99 and 1.01
Ratio [18]: 1.02 and 1.03
Ratio [19]: 1.01 and 1.03
Ratio [20]: 0.94 and 0.97
Ratio (Drug 30 nM alone, ATRi 0 nM (experiment 'GEM'), replicates R1-R3): 1.00
Ratio [21]: 1.03
Ratio [22]: 1.00 and 1.01
Ratio [23]: 0.94 and 0.96
Ratio [24]: 1.01 and 1.02
Ratio [25]: 0.89
Ratio [26]: 0.69 and 0.76
Ratio [27]: 0.56 and 0.59
Ratio [28]: 0.91 and 0.93
Ratio [29]: 0.56
Ratio (Drug 1000 nM + ATRi 10 nM (GEM+ATRi_dose2), replicates R1-R3): 0.48
Ratio [30]: 0.43 and 0.46
Ratio [31]: 0.78 and 0.81
Ratio [32]: 0.50
Ratio [33]: 0.39 and 0.41
Ratio [34]: 0.39 and 0.37
Ratio [35]: 0.60 and 0.67
Ratio (drug 1 nM + ATRi 3 nM): 1.05
Ratio (drug 1 nM + ATRi 10 nM): 1.03
Ratio (drug 1 nM + ATRi 30 nM): 0.93
Ratio (drug 1 nM alone (ATRi 0 nM)): 1.02
Ratio (drug 3 nM + ATRi 3 nM): 1.01
Ratio (drug 3 nM + ATRi 10 nM): 0.98
Ratio (drug 3 nM + ATRi 30 nM): 0.92
Ratio (drug 3 nM alone (ATRi 0 nM)): 1.00
Ratio (drug 10 nM + ATRi 3 nM): 1.01
Ratio (drug 10 nM + ATRi 10 nM): 1.01
Ratio (drug 10 nM + ATRi 30 nM): 0.91
Ratio (drug 10 nM alone (ATRi 0 nM)): 1.02
Ratio (drug 30 nM + ATRi 3 nM): 1.02
Ratio (drug 30 nM + ATRi 10 nM): 1.00
Ratio (drug 30 nM + ATRi 30 nM): 0.94
Ratio (drug 30 nM alone (ATRi 0 nM)): 1.02
Ratio [36]: 1.02 and 1.04
Ratio (drug 100 nM + ATRi 10 nM): 1.01
Ratio (drug 100 nM + ATRi 30 nM): 0.92
Ratio (drug 100 nM alone (ATRi 0 nM)): 1.03
Ratio [37]: 0.84 and 0.85
Ratio (drug 300 nM + ATRi 10 nM): 0.76
Ratio (drug 300 nM + ATRi 30 nM): 0.58
Ratio (drug 300 nM alone (ATRi 0 nM)): 0.95
Ratio [38]: 0.66 and 0.57
Ratio (drug 1000 nM + ATRi 10 nM): 0.52
Ratio (drug 1000 nM + ATRi 30 nM): 0.43
Ratio (drug 1000 nM alone (ATRi 0 nM)): 0.78
Ratio [39]: 0.46 and 0.41
Ratio (drug 3000 nM + ATRi 10 nM): 0.43
Ratio (drug 3000 nM + ATRi 30 nM): 0.42
Ratio (drug 3000 nM alone (ATRi 0 nM)): 0.60
sensitization of AsPC-1 cells to the chemodrug by Elimusertib (chemodrug + three sub-EC50 doses of Elimusertib): sensitized
Response (drug 1 nM + ATRi 3 nM): 97.06
Response (drug 1 nM + ATRi 10 nM): 94.90
Response (drug 1 nM + ATRi 30 nM): 85.74
Response (drug 1 nM alone (ATRi 0 nM)): 94.29
Response (drug 3 nM + ATRi 3 nM): 93.28
Response (drug 3 nM + ATRi 10 nM): 90.39
Response (drug 3 nM + ATRi 30 nM): 84.88
Response (drug 3 nM alone (ATRi 0 nM)): 92.53
Response (drug 10 nM + ATRi 3 nM): 93.05
Response (drug 10 nM + ATRi 10 nM): 92.81
Response (drug 10 nM + ATRi 30 nM): 83.72
Response (drug 10 nM alone (ATRi 0 nM)): 93.59
Response (drug 30 nM + ATRi 3 nM): 93.52
Response (drug 30 nM + ATRi 10 nM): 91.78
Response (drug 30 nM + ATRi 30 nM): 86.53
Response (drug 30 nM alone (ATRi 0 nM)): 94.07
Response [36]: 94.22 and 94.47
Response (drug 100 nM + ATRi 10 nM): 93.45
Response (drug 100 nM + ATRi 30 nM): 85.12
Response (drug 100 nM alone (ATRi 0 nM)): 94.67
Response [37]: 77.35 and 77.27
Response (drug 300 nM + ATRi 10 nM): 69.87
Response (drug 300 nM + ATRi 30 nM): 53.83
Response (drug 300 nM alone (ATRi 0 nM)): 87.11
Response [38]: 61.14 and 51.57
Response (drug 1000 nM + ATRi 10 nM): 47.87
Response (drug 1000 nM + ATRi 30 nM): 39.31
Response (drug 1000 nM alone (ATRi 0 nM)): 71.77
Response [39]: 42.27 and 37.14
Response (drug 3000 nM + ATRi 10 nM): 39.36
Response (drug 3000 nM + ATRi 30 nM): 38.38
Response (drug 3000 nM alone (ATRi 0 nM)): 55.50
